Source: patent US5563130A, “Methods for inhibiting angiogenesis, proliferation of endothelial or tumor cells and tumor growth” (American Cyanamid Company, priority 1994, dated 1996)
Structures can show the parent of a compound that is named as a salt.

How the values were obtained:
Assay type in all cases: cell-based
[1] = tested on: A2780S; experiment: Antiproliferative activity in human ovarian tumor cell line A2780S; settings: PROTOCOL 1 and PROTOCOL 2
Experimental: (§1) PROTOCOL 1, 2, and 3 are described in greater detail hereinbelow. In general, according to PROTOCOLS 1 and 2, the target ABAE and/or Human Tumor cells are exposed to the compound of Formula I for 48 hours. PROTOCOL 3 exposes ABAE cell to the compound for 4 days. A detailed description of the protocol is as follows:
(§2) Antiproliferative Activity in Human Tumor and Adult Bovine Aortic Endothelial (ABAE) Cell Lines
(§3) The antiproliferative activity of the compounds of Formula I of the present invention is evaluated in a panel comprised of human tumor cell lines and an adult bovine aortic endothelial cell line (ABAE). The human tumor cell lines are from:
(§4) All cell lines are maintained in log phase in RPMI 1640 media, supplemented with 5% fetal calf serum, penicillin/streptomycin and 2 mM L-glutamine. Cultures are renewed after 20 passages with cells from a fresh stock of batch-frozen early passage cells. Cell lines are routinely checked for mycoplasma contamination (Genprobe). In a laminar flow hood, cells (1-5×10^4) are plated into 96-well microtiter plates in a volume of 0.1 ml/well with a bulk microtiter dispenser (Denley). […] At this concentration, dimethylsulfoxide has no effect on cell growth. Compounds are added using a Tomtec dispenser which simultaneously dispenses from one 96-well plate, containing the drug dilutions, to the plates containing the cells. After two days of continuous drug exposure, 50% cold trichloroacetic acid (TCA) is added to 10% final concentration to fix the cells, and after 60 minutes at 4° C., the TCA is aspirated and the plates are washed 5 times with deionized water using a microtiter plate washer. The number of cells on the plate are quantitated using a protein dye-binding assay (Monks et al., 1991). A 0.4% solution of the dye, sulforhodamine B, in glacial acetic acid is added to the plates, and the plates are washed 5 times with 1% glacial acetic acid using the automatic plate washed. The bound stain is solubilized with 0.1 ml of 10 mM Tris base. The optical densities are read from an automatic spectrophotometric plate reader (Dynatech) directly to a main frame computer (VAX 8600).
(§5) Positive controls, that include standard chemotherapeutic drugs (i.e., adriamycin, cisplatin, etc.), are included in every experiment.
(§6) Background optical density measurements (complete media-cells, and complete media+drug-cells) are automatically subtracted from the appropriate control and test wells. Mean values and standard errors are determined from duplicate wells. A measure is also made of the optical density at time when the drugs are added. The number of cells after treatment (P), as % of control, is calculated for every concentration of drug, as follows: [formula] wherein: T is optical density measurement for treated cells after 48 hours;
(§7) C is optical density measurement for untreated cells after 48 hours;
(§8) Co is optical density measurement for cells at the time of drug addition.
(§9) IC50 of growth inhibition is calculated from the sets of P values using the RS-1 data package (BBN Software).
(§10) The antiproliferative activity of the compounds of Formula I is evaluated in a panel comprised of human tumor cell lines and an adult bovine aortic endothelial cell line (ABAE) as listed in PROTOCOL 1. This assay is a modification of PROTOCOL 1. The modifications include:
(§11) 1) each concentration for each compound is tested in a single well;
(§12) 2) compounds are tested at 20, 4, 0.8, 0.16 microgram/ml and additionally in some experiments at 100 and 0.32 microgram/ml;
(§13) 3) samples are pipetted into a 96-well plate for each of the cell lines by a Beckman Biomek 1000 SL robot;
(§14) 4) after fixing with TCA each well is washed with 0.35 ml distilled water twice, not five times;
(§15) 5) after staining with sulforhodamine B each well is washed 3 times, not five times; […]

[2] = tested on: A2780/DDP; experiment: Antiproliferative activity in human ovarian tumor cell line A2780/DDP; settings: PROTOCOL 1 and PROTOCOL 2
Experimental: as §1, §2, §3, §4, §5, §6, §7, §8, §9, §10, §11, §12, §13, §14, §15

[3] = tested on: MIP; experiment: Antiproliferative activity in human colon tumor cell line MIP; settings: PROTOCOL 1 and PROTOCOL 2
Experimental: as §1, §2, §3
(§16) 2) Colon tumors: MIP, CaCo2, and SW620.
as §4, §5, §6, §7, §8, §9, §10, §11, §12, §13, §14, §15

[4] = tested on: HTB 16; experiment: Antiproliferative activity in human tumor cell line HTB 16; settings: ovarian tumor line; PROTOCOL 1 and PROTOCOL 2
Experimental: as §1, §2, §3, §4, §5, §6, §7, §8, §9, §10, §11, §12, §13, §14, §15

[5] = tested on: SW620; experiment: Antiproliferative activity in human colon tumor cell line SW620; settings: PROTOCOL 1 and PROTOCOL 2
Experimental: as §1, §2, §3, §16, §4, §5, §6, §7, §8, §9, §10, §11, §12, §13, §14, §15

[6] = tested on: Human Tumor Cell lines; experiment: Antiproliferative activity in panel of human tumor cell lines; settings: average over the tested human tumor cell lines
Experimental: as §1, §2, §3, §16, §4, §5, §6, §7, §8, §9, §10, §11, §12, §13, §14, §15

Row | SMILES | A2780S IC50 [1] [µg/mL] | A2780/DDP IC50 [2] [µg/mL] | MIP IC50 [3] [µg/mL] | HTB 16 IC50 [4] [µg/mL] | SW620 IC50 [5] [µg/mL] | AVERAGE IC50 FOR TUMOR CELL LINES [6] [µg/mL]
1 | CN(C)[C@@H]1C(O)=C(C(N)=O)C(=O)[C@@]2(O)C(O)=C3C(=O)c4c(ccc(NC(=O)CN5CCCC5)c4O)CC3CC12.Cl.Cl (stereo partly drawn) [Example 5] | 2.5 | 2.7 | 3.0 | 2.3 | 2.8 | 2.7
2 | CC(C)CNCC(=O)Nc1ccc2c(c1O)C(=O)C1=C(O)[C@]3(O)C(=O)C(C(N)=O)=C(O)[C@@H](N(C)C)C3CC1C2.Cl.Cl (stereo partly drawn) [Example 9, [b 4S-(4alpha,12aalpha)]-4-(Dimethylamino)-1,4,4a,5,5a,-6,11,12a-octahydro-3,10,12,12a-tetrahydroxy-9-[[[(2-methylpropyl)amino]acetyl]amino]-1,11-dioxo-2-naphthacenecarboxamide dihydrochloride] | 3.5 | 7.7 | 5.75 | 5.0 | 5.7 | 5.5
3 | CN(C)[C@@H]1C(O)=C(C(N)=O)C(=O)[C@@]2(O)C(O)=C3C(=O)c4c(ccc(NC(=O)CNCC5CC5)c4O)CC3CC12.Cl.Cl (stereo partly drawn) [Example 7, [4S-(4alpha,12aalpha)]-9-[[[(Cyclopropylmethyl)amino)acetyl]amino]-4-(dimethylamino)-1,4,4a,5,5a,6,11,12a-octahydro-3,10,12,12a-tetrahydroxy-1,11-dioxo-2-naphthacenecarboxamide dihydrochloride] | 4.9 | 3.9 | 6.3 | 3.3 | 3.9 | 4.5
4 | CN(C)[C@@H]1C(O)=C(C(N)=O)C(=O)[C@@]2(O)C(O)=C3C(=O)c4c(ccc(NC(=O)CN5CCCCC5)c4O)CC3CC12 (stereo partly drawn) [Example 3, [7S-(7alpha,10aalpha)]-N-9-(Aminocarbonyl)-7-(dimethylamino)-5,5a,6,6a,7,10,10a,12-octahydro-1,8,10a,11-tetrahydroxy-10,12-dioxo-1-piperidineacetamidedihydrochloride] | 2.5 | 2.7 | 3.0 | 2.3 | 2.8 | 2.7
5 | CN(C)CC(=O)Nc1ccc2c(c1O)C(=O)C1=C(O)[C@]3(O)C(=O)C(C(N)=O)=C(O)[C@@H](N(C)C)C3CC1C2.Cl.Cl (stereo partly drawn) [Example 8, [4S-(4alpha,121aalpha)]-9-[[(Dimethylamino)acetyl]-amino]-4-(dimethylamino)-1,4,4a,5,5a,6,11,12a-octahydro-3,10,12,12a-tetrahydroxy-1,11-dioxo-2-naphthacenecarboxamide dihydrochloride] | 4.8 | 5.8 | 6.0 | 4.1 | 5.0 | 5.1
